Test results from PubChem BioAssay (NCI).
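At the GI50, growth is halved. TGI is the concentration that stops growth completely.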

Assays:
Assay in all cases: growth of human tumour cells (NCI), 384-well format
CCRF-CEM leukemia = tested on: CCRF-CEM leukemia
SF-295 CNS = tested on: SF-295 CNS
SNB-19 CNS = tested on: SNB-19 CNS
HT29 colon = tested on: HT29 colon
NCI-H226 lung = tested on: NCI-H226 lung
TK-10 renal = tested on: TK-10 renal
SK-MEL-5 melanoma = tested on: SK-MEL-5 melanoma
OVCAR-4 ovarian = tested on: OVCAR-4 ovarian
A498 renal = tested on: A498 renal
NCI-H23 lung = tested on: NCI-H23 lung
786-0 renal = tested on: 786-0 renal
COLO 205 colon = tested on: COLO 205 colon
A549 NSCLC = tested on: A549 NSCLC
MALME-3M melanoma = tested on: MALME-3M melanoma
UACC-62 melanoma = tested on: UACC-62 melanoma
RXF 393 renal = tested on: RXF 393 renal
IGROV1 ovarian = tested on: IGROV1 ovarian
HCT-116 colon = tested on: HCT-116 colon
SK-OV-3 ovarian = tested on: SK-OV-3 ovarian
HL-60(TB) leukemia = tested on: HL-60(TB) leukemia
T-47D breast = tested on: T-47D breast
MDA-MB-435 melanoma = tested on: MDA-MB-435 melanoma
UO-31 renal = tested on: UO-31 renal
SF-268 CNS = tested on: SF-268 CNS
SF-539 CNS = tested on: SF-539 CNS
NCI-H460 NSCLC = tested on: NCI-H460 NSCLC
SW-620 colon = tested on: SW-620 colon
OVCAR-5 ovarian = tested on: OVCAR-5 ovarian
UACC-257 melanoma = tested on: UACC-257 melanoma
NCI-H322M lung = tested on: NCI-H322M lung
BT-549 breast = tested on: BT-549 breast
MDA-MB-231 breast = tested on: MDA-MB-231 breast
OVCAR-8 ovarian = tested on: OVCAR-8 ovarian
SK-MEL-28 melanoma = tested on: SK-MEL-28 melanoma
ACHN renal = tested on: ACHN renal
HCT-15 colon = tested on: HCT-15 colon
RPMI-8226 leukemia = tested on: RPMI-8226 leukemia
NCI-H522 lung = tested on: NCI-H522 lung
NCI/ADR-RES ovarian = tested on: NCI/ADR-RES ovarian
SN12C renal = tested on: SN12C renal
KM12 colon = tested on: KM12 colon
PC-3 prostate = tested on: PC-3 prostate
K-562 leukemia = tested on: K-562 leukemia
M14 melanoma = tested on: M14 melanoma
DU-145 prostate = tested on: DU-145 prostate
MDA-MB-468 breast = tested on: MDA-MB-468 breast
HCC-2998 colon = tested on: HCC-2998 colon
MOLT-4 leukemia = tested on: MOLT-4 leukemia
U251 glioblastoma = tested on: U251 glioblastoma
OVCAR-3 ovarian = tested on: OVCAR-3 ovarian
CAKI-1 renal = tested on: CAKI-1 renal
MCF7 breast = tested on: MCF7 breast
SR leukemia = tested on: SR leukemia
HOP-62 NSCLC = tested on: HOP-62 NSCLC
LOX IMVI melanoma = tested on: LOX IMVI melanoma
SK-MEL-2 melanoma = tested on: SK-MEL-2 melanoma
HOP-92 NSCLC = tested on: HOP-92 NSCLC

SMILES: c1ccc(Cn2c(-c3ccc(OC[C@H](C4CCNCC4)n4c(-c5ccccc5)nc5ccccc54)cc3)nc3ccccc32)cc1
- GI50 (CCRF-CEM leukemia): 1.26 µM
- TGI (CCRF-CEM leukemia): 2.52 µM
- GI50 (SF-295 CNS): 1.86 µM
- TGI (SF-295 CNS): 3.27 µM
- GI50 (SNB-19 CNS): 1.97 µM
- TGI (SNB-19 CNS): 3.4 µM
- GI50 (HT29 colon): 1.66 µM
- TGI (HT29 colon): 3.04 µM
- GI50 (NCI-H226 lung): 1.77 µM
- TGI (NCI-H226 lung): 3.16 µM
- GI50 (TK-10 renal): 1.85 µM
- TGI (TK-10 renal): 3.25 µM
- GI50 (SK-MEL-5 melanoma): 1.82 µM
- TGI (SK-MEL-5 melanoma): 3.22 µM
- GI50 (OVCAR-4 ovarian): 1.51 µM
- TGI (OVCAR-4 ovarian): 2.85 µM
- GI50 (A498 renal): 1.7 µM
- TGI (A498 renal): 3.08 µM
- GI50 (NCI-H23 lung): 2.23 µM
- TGI (NCI-H23 lung): 3.68 µM
- GI50 ([…]-0 renal): 1.73 µM
- TGI (786-0 renal): 3.12 µM
- GI50 (COLO 205 colon): 1.82 µM
- TGI (COLO 205 colon): 3.23 µM
- GI50 (A549 NSCLC): 1.84 µM
- TGI (A549 NSCLC): 3.26 µM
- GI50 (MALME-3M melanoma): 1.79 µM
- TGI (MALME-3M melanoma): 3.18 µM
- GI50 (UACC-62 melanoma): 1.89 µM
- TGI (UACC-62 melanoma): 3.3 µM
- GI50 (RXF 393 renal): 1.58 µM
- TGI (RXF 393 renal): 2.92 µM
- GI50 (IGROV1 ovarian): 1.65 µM
- TGI (IGROV1 ovarian): 3.02 µM
- GI50 (HCT-116 colon): 1.45 µM
- TGI (HCT-116 colon): 2.78 µM
- GI50 (SK-OV-3 ovarian): 1.68 µM
- TGI (SK-OV-3 ovarian): 3.06 µM
- GI50 (HL-60(TB) leukemia): 1.79 µM
- TGI (HL-60(TB) leukemia): 3.18 µM
- GI50 (T-47D breast): 1.61 µM
- TGI (T-47D breast): 2.97 µM
- GI50 (MDA-MB-435 melanoma): 2 µM
- TGI (MDA-MB-435 melanoma): 3.43 µM
- GI50 (UO-31 renal): 1.87 µM
- TGI (UO-31 renal): 3.27 µM
- GI50 (SF-268 CNS): 1.8 µM
- TGI (SF-268 CNS): 3.2 µM
- GI50 (SF-539 CNS): 1.66 µM
- TGI (SF-539 CNS): 3.03 µM
- GI50 (NCI-H460 NSCLC): 1.7 µM
- TGI (NCI-H460 NSCLC): 3.12 µM
- GI50 (SW-620 colon): 1.74 µM
- TGI (SW-620 colon): 3.14 µM
- GI50 (OVCAR-5 ovarian): 2.03 µM
- TGI (OVCAR-5 ovarian): 3.47 µM
- GI50 (UACC-257 melanoma): 1.27 µM
- TGI (UACC-257 melanoma): 2.53 µM
- GI50 (NCI-H322M lung): 1.69 µM
- TGI (NCI-H322M lung): 3.06 µM
- GI50 (BT-549 breast): 1.7 µM
- TGI (BT-549 breast): 3.08 µM
- GI50 (MDA-MB-231 breast): 1.89 µM
- TGI (MDA-MB-231 breast): 3.3 µM
- GI50 (OVCAR-8 ovarian): 1.81 µM
- TGI (OVCAR-8 ovarian): 3.22 µM
- GI50 (SK-MEL-28 melanoma): 1.83 µM
- TGI (SK-MEL-28 melanoma): 3.23 µM
- GI50 (ACHN renal): 1.84 µM
- TGI (ACHN renal): 3.25 µM
- GI50 (HCT-15 colon): 1.86 µM
- TGI (HCT-15 colon): 3.28 µM
- GI50 (RPMI-8226 leukemia): 0.971 µM
- TGI (RPMI-8226 leukemia): 2.14 µM
- GI50 (NCI-H522 lung): 1.89 µM
- TGI (NCI-H522 lung): 3.29 µM
- GI50 (NCI/ADR-RES ovarian): 2.4 µM
- TGI (NCI/ADR-RES ovarian): 5.2 µM
- GI50 (SN12C renal): 1.82 µM
- TGI (SN12C renal): 3.22 µM
- GI50 (KM12 colon): 1.8 µM
- TGI (KM12 colon): 3.21 µM
- GI50 (PC-3 prostate): 1.83 µM
- TGI (PC-3 prostate): 3.25 µM
- GI50 (K-562 leukemia): 1.5 µM
- TGI (K-562 leukemia): 2.83 µM
- GI50 (M14 melanoma): 1.79 µM
- TGI (M14 melanoma): 3.18 µM
- GI50 (DU-145 prostate): 1.86 µM
- TGI (DU-145 prostate): 3.28 µM
- GI50 (MDA-MB-468 breast): 1.97 µM
- TGI (MDA-MB-468 breast): 3.39 µM
- GI50 (HCC-2998 colon): 1.36 µM
- TGI (HCC-2998 colon): 2.65 µM
- GI50 (MOLT-4 leukemia): 1.16 µM
- TGI (MOLT-4 leukemia): 2.41 µM
- GI50 (U251 glioblastoma): 1.59 µM
- TGI (U251 glioblastoma): 2.96 µM
- GI50 (OVCAR-3 ovarian): 1.81 µM
- TGI (OVCAR-3 ovarian): 3.22 µM
- GI50 (CAKI-1 renal): 1.84 µM
- TGI (CAKI-1 renal): 3.24 µM
- GI50 (MCF7 breast): 1.61 µM
- TGI (MCF7 breast): 2.98 µM
- GI50 (SR leukemia): 1.17 µM
- TGI (SR leukemia): 2.41 µM
- GI50 (HOP-62 NSCLC): 2.02 µM
- TGI (HOP-62 NSCLC): 3.46 µM
- GI50 (LOX IMVI melanoma): 2.33 µM
- TGI (LOX IMVI melanoma): 3.8 µM
- GI50 (SK-MEL-2 melanoma): 1.51 µM
- TGI (SK-MEL-2 melanoma): 2.84 µM
- GI50 (HOP-92 NSCLC): 1.63 µM
- TGI (HOP-92 NSCLC): 2.99 µM
